Experimental data: PubChem BioAssay AID1259407 (Chemical Carcinogenesis Research Information System (CCRIS), 2018)
Active and inactive are the calls of the source. No rule for the calls is given here.

Test system: CCRIS mutagenicity, Ames/micronucleus/aberration tests
Experiment: CCRIS mutagenicity studies
[1] = Test System: AMES SALMONELLA TYPHIMURIUM, Strain/Indicator: TA97, Metabolic Activation: NONE, Method: STANDARD PLATE
[2] = Test System: AMES SALMONELLA TYPHIMURIUM, Strain/Indicator: TA98, Metabolic Activation: NONE, Method: STANDARD PLATE
[3] = Test System: AMES SALMONELLA TYPHIMURIUM, Strain/Indicator: TA98, Metabolic Activation: RAT, LIVER, S-9, AROCLOR 1254, Method: STANDARD PLATE
[4] = Test System: AMES SALMONELLA TYPHIMURIUM, Strain/Indicator: TA100, Metabolic Activation: NONE, Method: STANDARD PLATE
[5] = Test System: AMES SALMONELLA TYPHIMURIUM, Strain/Indicator: TA100, Metabolic Activation: RAT, LIVER, S-9, AROCLOR 1254, Method: STANDARD PLATE

For `CN=C1C=CC(=C(c2ccc(N(C)C)cc2)c2ccc(N(C)C)cc2)C=C1`, the mutagenic call [1] was “inactive; negative”, the mutagenic call (Test System: AMES SALMONELLA TYPHIMURIUM, Strain/Indicator: TA97, Metabolic Activation: RAT, LIVER, S-9, AROCLOR 1254, Method: STANDARD PLATE) was “inactive; negative” and the mutagenic call [2] was “inactive; negative”. The mutagenic call [3] was “inactive; negative”, the mutagenic call [4] was “inactive; negative” and the mutagenic call [5] was “inactive; negative”. For the same molecule, the mutagenic call (Test System: AMES SALMONELLA TYPHIMURIUM, Strain/Indicator: TA104, Metabolic Activation: NONE, Method: STANDARD PLATE) was “inactive; negative” and the mutagenic call (Test System: AMES SALMONELLA TYPHIMURIUM, Strain/Indicator: TA104, Metabolic Activation: RAT, LIVER, S-9, AROCLOR 1254, Method: STANDARD PLATE) was “inactive; negative”.
`CCC1(c2ccccc2)C(=O)NC(=O)NC1=O` was tested, and the mutagenic call (Test System: AMES SALMONELLA TYPHIMURIUM, Strain/Indicator: TA97, Metabolic Activation: HAMSTER LIVER S-9, AROCLOR 1254 (10%), Method: PREINCUBATION) was “inactive; negative”, the mutagenic call (Test System: AMES SALMONELLA TYPHIMURIUM, Strain/Indicator: TA97, Metabolic Activation: NONE, Method: PREINCUBATION) was “inactive; negative” and the mutagenic call [1] was “inactive; negative”. The mutagenic call (Test System: AMES SALMONELLA TYPHIMURIUM, Strain/Indicator: TA97, Metabolic Activation: RAT LIVER S-9, AROCLOR 1254 (10%), Method: PREINCUBATION) was “inactive; negative”, the mutagenic call (Test System: AMES SALMONELLA TYPHIMURIUM, Strain/Indicator: TA97, Metabolic Activation: S-9, Method: STANDARD PLATE) was “inactive; negative” and the mutagenic call (Test System: AMES SALMONELLA TYPHIMURIUM, Strain/Indicator: TA98, Metabolic Activation: HAMSTER LIVER S-9, AROCLOR 1254 (10%), Method: PREINCUBATION) was “inactive; negative”. For the same molecule, the mutagenic call (Test System: AMES SALMONELLA TYPHIMURIUM, Strain/Indicator: TA98, Metabolic Activation: NONE, Method: PREINCUBATION) was “inactive; negative”, the mutagenic call [2] was “inactive; negative” and the mutagenic call (Test System: AMES SALMONELLA TYPHIMURIUM, Strain/Indicator: TA98, Metabolic Activation: RAT LIVER S-9, AROCLOR 1254 (10%), Method: PREINCUBATION) was “inactive; negative”. For the same molecule, the mutagenic call [3] was “inactive; negative”, the mutagenic call (Test System: AMES SALMONELLA TYPHIMURIUM, Strain/Indicator: TA98, Metabolic Activation: S-9, Method: STANDARD PLATE) was “inactive; negative” and the mutagenic call (Test System: AMES SALMONELLA TYPHIMURIUM, Strain/Indicator: TA100, Metabolic Activation: HAMSTER LIVER S-9, AROCLOR 1254 (10%), Method: PREINCUBATION) was “inactive; negative”. The mutagenic call (Test System: AMES SALMONELLA TYPHIMURIUM, Strain/Indicator: TA100, Metabolic Activation: NONE, Method: PREINCUBATION) was “inactive; negative”, the mutagenic call [4] was “inactive; negative” and the mutagenic call (Test System: AMES SALMONELLA TYPHIMURIUM, Strain/Indicator: TA100, Metabolic Activation: RAT LIVER S-9, AROCLOR 1254 (10%), Method: PREINCUBATION) was “inactive; negative”. For the same molecule, the mutagenic call [5] was “inactive; negative”, the mutagenic call (Test System: AMES SALMONELLA TYPHIMURIUM, Strain/Indicator: TA100, Metabolic Activation: S-9, Method: STANDARD PLATE) was “inactive; negative” and the mutagenic call (Test System: AMES SALMONELLA TYPHIMURIUM, Strain/Indicator: TA102, Metabolic Activation: NONE, Method: STANDARD PLATE) was “inactive; negative”. For the same molecule, the mutagenic call (Test System: AMES SALMONELLA TYPHIMURIUM, Strain/Indicator: TA102, Metabolic Activation: S-9, Method: STANDARD PLATE) was “inactive; negative”, the mutagenic call (Test System: AMES SALMONELLA TYPHIMURIUM, Strain/Indicator: TA1535, Metabolic Activation: HAMSTER LIVER S-9, AROCLOR 1254 (10%), Method: PREINCUBATION) was “inactive; negative” and the mutagenic call (Test System: AMES SALMONELLA TYPHIMURIUM, Strain/Indicator: TA1535, Metabolic Activation: NONE, Method: STANDARD PLATE) was “active; positive”. The mutagenic call (Test System: AMES SALMONELLA TYPHIMURIUM, Strain/Indicator: TA1535, Metabolic Activation: RAT LIVER S-9, AROCLOR 1254 (5 OR 10%), Method: PREINCUBATION) was “inactive; negative”, the mutagenic call (Test System: AMES SALMONELLA TYPHIMURIUM, Strain/Indicator: TA1535, Metabolic Activation: RAT, LIVER, S-9, AROCLOR 1254, Method: STANDARD PLATE) was “inactive; negative” and the mutagenic call (Test System: AMES SALMONELLA TYPHIMURIUM, Strain/Indicator: TA1537, Metabolic Activation: NONE, Method: STANDARD PLATE) was “inactive; negative”. For the same molecule, the mutagenic call (Test System: AMES SALMONELLA TYPHIMURIUM, Strain/Indicator: TA1537, Metabolic Activation: RAT, LIVER, S-9, AROCLOR 1254, Method: STANDARD PLATE) was “inactive; negative”, the mutagenic call (Test System: AMES SALMONELLA TYPHIMURIUM, Strain/Indicator: TA1538, Metabolic Activation: NONE, Method: STANDARD PLATE) was “inactive; negative” and the mutagenic call (Test System: AMES SALMONELLA TYPHIMURIUM, Strain/Indicator: TA1538, Metabolic Activation: RAT, LIVER, S-9, AROCLOR 1254, Method: STANDARD PLATE) was “inactive; negative”. The mutagenic call (Test System: CHINESE HAMSTER V-79, Strain/Indicator: V-79/6-THIOGUANINE, Metabolic Activation: NONE, Method: REPLATING) was “active; positive”, the mutagenic call (Test System: MOUSE LYMPHOMA, Strain/Indicator: L5178Y (TK+/-)/TRIFLUROTHYMIDINE, Metabolic Activation: NONE, Method: SUSPENSION/PLATE) was “inactive; negative” and the mutagenic call (Test System: MOUSE LYMPHOMA, Strain/Indicator: L5178Y (TK+/TK-), Metabolic Activation: NONE, Method: SUSPENSION/PLATE) was “inactive; negative”. The mutagenic call (Test System: MOUSE LYMPHOMA, Strain/Indicator: L5178Y (TK+/TK-), Metabolic Activation: RAT, LIVER, S-9, AROCLOR 1254, Method: SUSPENSION/PLATE) was “active; positive”, the mutagenic call (Test System: MOUSE LYMPHOMA, Strain/Indicator: L5178Y (TK+/TK-), Metabolic Activation: RAT, LIVER, S-9, Method: SUSPENSION/PLATE) was “inactive; negative” and the mutagenic call (Test System: UDS RAT HEPATOCYTES, Strain/Indicator: BROMODEOXYURIDINE INCORP, Metabolic Activation: NONE, Method: FLOW CYTOMETRIC ANALYSIS) was “inactive; negative”. For the same molecule, the mutagenic call (Test System: UDS RAT HEPATOCYTES, Strain/Indicator: THY INCORP, Metabolic Activation: NONE, Method: AUTORADIOGRAPHY) was “inactive; negative” and the mutagenic call (Test System: UDS RAT HEPATOCYTES, Strain/Indicator: THY INCORP, Metabolic Activation: NONE, Method: LIQUID SCINTILLATION COUNTING) was “inactive; negative”.
